The record followed here is patent US7605168B2 (Plexxikon, Inc., priority 2004, dated 2009).

Assay [1] has as its target T1, PDE4D5: full-length human PDE4D5 isozyme (Homo sapiens, UniProt Q08499).
T1 construct: made in house; host or cells: baculovirus infected insect cells (pFastBacHT)
Description: PDE4 IC50 determination by Scintillation Proximity Assay (SPA), full-length PDE4D5. The format is biochemical. Particulars: cell lysate, [3H]cAMP SPA. In short, it runs like this:
(§1)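 Unpurified enzyme from cell lysates (PDE4B2 2.5 μl, PDE4D5 0.083 μl of 50% glycerol stock/ml) hydrolysing [3H]cAMP in 50 mM Tris pH 7.5, 8.3 mM MgCl, 1.7 mM EGTA, 0.01% BSA, 30 min at 30 °C. Stopped with yttrium silicate SPA beads in 18 mM ZnSO4; bead-bound [3H]AMP counted. IC50 by non-linear regression.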
(In a scintillation proximity assay essentially only radioactivity close to the scintillant gives light.)

Assay [2] deals with TNF-α release from whole blood cultures stimulated with LPS. The assay is described as follows: IC50 by TNF alpha production upon stimulation of whole blood cultures with LPS. Format: cell-based. The conditions noted are these: human whole blood (buffy coat) culture, 100 ng/ml LPS, 4 hours; read-out: h TNFα IC50. In short, it runs like this: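 Human buffy coat, diluted with 7 volumes of RPMI/2.5% heat-inactivated FBS, was preincubated with compound (8-point 1:3 series) for 1 h at 37 °C. It was then stimulated with 100 ng/ml LPS (final) for 4 h. Supernatant TNF-α was measured by sandwich ELISA at 450 nm, and IC50 was set between DMSO (0%) and PDE4-inhibitor (100%) controls.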

The target in assay [3] is T2, PDE4D: catalytic domain S316-V692 (Homo sapiens, UniProt Q08499).
T2 construct: pET15S PDE4D S316-V692-X; His6 (N, cleaved yes); thrombin cleavage site (N, cleaved yes); made in house; host or cells: E. coli BL21 (DE3) RIL
Description: PDE4 IC50 determination by Scintillation Proximity Assay (SPA), PDE4D catalytic domain. The conditions noted are these: [3H]cAMP SPA, 30 min at 30° C. The format is biochemical. On the procedure: IC50s were determined by Scintillation Proximity Assay (SPA). The principle of the assay is based on the fact that cAMP, the PDE4 substrate, binds weakly to Yittrium Silicate SPA beads, whereas AMP, the product of PDE4 hydrolysis binds strongly. Thus, the extent of PDE4 hydrolysis of a sample of [^3H]cAMP can be measured because only the [^3H]AMP produced by PDE4 hydrolysis will bind to the SPA beads and produce a scintillation signal.
[…] Enzyme was stored in 50% glycerol at −20°. See Example 144.
Compounds tested (see Tables 5 for compounds and results) were 3-fold serially diluted 11 times in DMSO from a starting concentration of 4 mM or 40 μM, depending on compound potency. 1 μl of each dilution was transferred into duplicate wells of a white polystyrene 384-well assay plate (Corning #3710). In addition to the compound dilutions, each assay plate contained control wells with 1 μl of DMSO (to define 0% enzyme inhibition) or 1 μl of 200 μM roflumilast (to define 100% enzyme inhibition). Using a Beckman FX robot, 10 μl of [^3H] cAMP (Amersham TRK559) at […] in assay buffer (50 mM Tris, pH 7.5; 8.3 mM MgCl; 1.7 mM EGTA; 0.01% BSA) was transferred to each assay well. Next, 10 μl of PDE4 enzyme in assay buffer was added and the plates were shaken for 30 s. at 1000 rpm to start the cAMP hydrolysis reaction. The concentrations of enzyme used were: PDE4B, 80 ng/ml; PDE4D, 4 ng/ml; PDE4B2, 2.5 μl of 50% glycerol stock/ml; PDE4D5 0.083 μl of 50% glycerol stock/ml. Assay plates were covered and incubated for 30 min. at 30° C. Reactions were stopped by robotic addition of 10 μl of 5 mg/ml SPA beads (Amersham RPNQ0013) in 18 mM ZnSO4. The assay plates were covered with clear plastic film, centrifuged for 1 min. at 1000 RPM to settle the SPA beads, and counted using a Wallac TriLux scintillation counter. IC50's were calculated from the raw assay data by non-linear regression curve fitting using the Assay Explorer software package from MDL.

Assay [4] addresses T3, PDE4B: catalytic domain of human PDE4B from S152-S528 (Homo sapiens, UniProt Q07343).
T3 construct: The catalytic domain of human PDE4B from S152-S528; His6 (N, cleaved yes); thrombin cleavage site (N, cleaved yes); made in house; host or cells: E. coli BL21 (DE3) RIL
The assay is described as follows: PDE4 IC50 determination by Scintillation Proximity Assay (SPA), PDE4B catalytic domain. The format is biochemical. The conditions noted are these: [3H]cAMP SPA, 30 min at 30° C. In short, it runs like this: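 Human PDE4B catalytic domain (80 ng/ml) hydrolysed [3H]cAMP in 50 mM Tris pH 7.5, 8.3 mM MgCl, 1.7 mM EGTA, 0.01% BSA for 30 min at 30 °C. Reaction was stopped with yttrium silicate SPA beads in 18 mM ZnSO4, and bound [3H]AMP was counted by scintillation. IC50 came from non-linear regression.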

Assay [5] addresses T4, PDE4B2: full-length human PDE4B2 isozyme (Homo sapiens, UniProt Q07343).
T4 construct: made in house; host or cells: baculovirus infected insect cells (pFastBacHT)
Description: PDE4 IC50 determination by Scintillation Proximity Assay (SPA), full-length PDE4B2. Format: biochemical. The conditions noted are these: cell lysate, [3H]cAMP SPA. In a few lines:
as §1

T4 sequence (Q07343 with tags, fused parts or gaps isoform Q07343-2): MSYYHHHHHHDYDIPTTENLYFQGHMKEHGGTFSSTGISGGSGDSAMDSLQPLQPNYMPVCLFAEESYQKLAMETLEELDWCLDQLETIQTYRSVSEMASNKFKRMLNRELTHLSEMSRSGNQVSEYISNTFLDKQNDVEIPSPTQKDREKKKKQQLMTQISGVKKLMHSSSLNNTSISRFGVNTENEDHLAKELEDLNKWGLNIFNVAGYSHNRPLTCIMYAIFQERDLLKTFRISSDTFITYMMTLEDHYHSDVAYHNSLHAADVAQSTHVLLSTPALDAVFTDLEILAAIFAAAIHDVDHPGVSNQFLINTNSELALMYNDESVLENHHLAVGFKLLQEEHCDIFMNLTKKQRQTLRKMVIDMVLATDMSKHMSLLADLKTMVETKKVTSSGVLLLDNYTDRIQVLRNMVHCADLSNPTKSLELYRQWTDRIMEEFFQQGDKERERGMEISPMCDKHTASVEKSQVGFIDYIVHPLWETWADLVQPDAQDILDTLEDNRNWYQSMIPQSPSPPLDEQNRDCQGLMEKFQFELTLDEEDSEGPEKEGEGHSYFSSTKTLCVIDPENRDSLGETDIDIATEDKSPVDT
T1 sequence (Q08499 with tags, fused parts or gaps isoform Q08499-6): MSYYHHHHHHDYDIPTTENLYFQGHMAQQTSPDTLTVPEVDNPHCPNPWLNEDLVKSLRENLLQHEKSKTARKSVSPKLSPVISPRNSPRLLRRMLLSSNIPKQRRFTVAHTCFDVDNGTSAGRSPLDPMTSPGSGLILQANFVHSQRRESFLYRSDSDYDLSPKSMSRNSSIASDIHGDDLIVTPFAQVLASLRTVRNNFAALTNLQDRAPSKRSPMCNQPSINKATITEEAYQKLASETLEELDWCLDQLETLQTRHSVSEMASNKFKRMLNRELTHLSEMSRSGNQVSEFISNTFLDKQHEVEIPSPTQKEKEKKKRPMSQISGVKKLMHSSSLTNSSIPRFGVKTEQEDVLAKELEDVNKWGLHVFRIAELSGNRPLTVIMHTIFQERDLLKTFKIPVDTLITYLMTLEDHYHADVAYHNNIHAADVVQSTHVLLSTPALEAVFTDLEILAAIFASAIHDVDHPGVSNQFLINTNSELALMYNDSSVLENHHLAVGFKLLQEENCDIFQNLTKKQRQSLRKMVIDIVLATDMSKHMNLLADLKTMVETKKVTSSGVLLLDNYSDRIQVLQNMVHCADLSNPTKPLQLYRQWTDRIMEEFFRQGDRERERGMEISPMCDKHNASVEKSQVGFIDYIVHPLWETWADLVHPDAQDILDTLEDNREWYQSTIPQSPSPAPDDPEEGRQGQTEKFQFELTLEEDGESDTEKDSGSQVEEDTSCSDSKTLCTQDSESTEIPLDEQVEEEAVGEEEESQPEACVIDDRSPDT
T3 sequence (Q07343 324-700): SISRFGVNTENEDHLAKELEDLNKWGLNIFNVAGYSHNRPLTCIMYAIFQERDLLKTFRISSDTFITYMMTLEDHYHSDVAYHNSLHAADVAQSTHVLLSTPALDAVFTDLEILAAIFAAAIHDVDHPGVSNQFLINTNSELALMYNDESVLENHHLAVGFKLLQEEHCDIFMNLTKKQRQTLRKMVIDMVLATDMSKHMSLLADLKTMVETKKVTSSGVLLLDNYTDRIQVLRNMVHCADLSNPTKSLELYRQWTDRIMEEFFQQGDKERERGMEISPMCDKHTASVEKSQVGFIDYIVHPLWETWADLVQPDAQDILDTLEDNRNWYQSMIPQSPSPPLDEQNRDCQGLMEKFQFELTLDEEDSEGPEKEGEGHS
T2 sequence (Q08499 380-756): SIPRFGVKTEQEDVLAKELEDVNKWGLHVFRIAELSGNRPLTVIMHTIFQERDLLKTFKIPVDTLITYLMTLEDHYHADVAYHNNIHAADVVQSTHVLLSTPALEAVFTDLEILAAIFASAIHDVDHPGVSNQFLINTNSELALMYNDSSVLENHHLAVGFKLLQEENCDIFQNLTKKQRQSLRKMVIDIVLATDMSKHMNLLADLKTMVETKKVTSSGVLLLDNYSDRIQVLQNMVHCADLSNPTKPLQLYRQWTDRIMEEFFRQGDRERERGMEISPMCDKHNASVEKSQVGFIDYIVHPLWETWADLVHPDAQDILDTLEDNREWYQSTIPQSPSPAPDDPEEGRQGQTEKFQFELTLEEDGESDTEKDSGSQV

In general, IC50 refers to the concentration needed to halve the response being measured. Take `COc1ccc(-c2cn(S(=O)(=O)c3ccc(-c4ccncc4C)cc3)c3ncccc23)cc1OC` [Compound 69, 3-(3,4-Dimethoxy-phenyl)-1-[4-(3-methyl-pyridin-4-yl)-benzenesulfonyl]-1H-pyrrolo[2,3-b]pyridine]: the IC50 in assay [1] was less than 10 µM; in assay [2] it was no more than 10 µM; in assay [3], no more than 10 µM; in assay [4], less than 10 µM; in assay [5], less than 10 µM.

With `COc1ccc(-c2cn(S(=O)(=O)Cc3ccc(Cl)cc3)c3ncccc23)cc1OC` [Compound 17, 1-(4-chloro-phenylmethanesulfonyl)-3-(3,4-dimethoxy-phenyl)-1H-pyrrolo[2,3-b]pyridine], the IC50 in assay [1] was less than 10 µM; in assay [2], no more than 10 µM; in assay [3], no more than 10 µM; in assay [4] it was less than 10 µM; in assay [5], less than 10 µM.

On to `COc1ccc(-c2cn(C(=O)c3ccc(N(C)C)c4ccccc34)c3ncccc23)cc1OC` [Compound 109, [3-(3,4-Dimethoxy-phenyl)-pyrrolo[2,3-b]pyridin-1-yl]-(4-dimethylamino-naphthalen-1-yl)-methanone], for which the IC50 is less than 10 µM in assay [1]; no more than 10 µM in assay [2]; no more than 10 µM in assay [3]; less than 10 µM in assay [4]; less than 10 µM in assay [5].

`CCCOc1ccccc1C(=O)n1cc(-c2ccc(OC)c(OC)c2)c2cccnc21` [Compound 113, [3-(3,4-Dimethoxy-phenyl)-pyrrolo[2,3-b]pyridin-1-yl]-(2-propoxy-phenyl)-methanone]: the IC50 was less than 10 µM in assay [1]; no more than 10 µM in assay [2]; no more than 10 µM in assay [3]; less than 10 µM in assay [4]; less than 10 µM in assay [5].

`COc1ccc(-c2cn(S(=O)(=O)c3cccc4cc(C)cnc34)c3ccc(Cl)cc23)cc1OC` [Compound 96, 8-[5-Chloro-3-(3,4-Dimethoxy-phenyl)-indole-1-sulfonyl]-3-methyl-quinoline]: the IC50 was less than 10 µM in assay [1]; no more than 10 µM in assay [2]; no more than 10 µM in assay [3]; less than 10 µM in assay [4]; less than 10 µM in assay [5].

For `COc1ccc(-c2cn(C(=O)c3cccc4cccnc34)c3ncccc23)cc1OC` [Compound 66], the IC50 is less than 10 µM in assay [1]; no more than 10 µM in assay [2]; no more than 10 µM in assay [3]; less than 10 µM in assay [4]; less than 10 µM in assay [5].

`COc1ccc(-c2cn(S(=O)(=O)c3cccc4cc(C)cnc34)c3ccc(Cl)cc23)cc1OC1CCCC1` [Compound 95, 8-[5-Chloro-3-(3-cyclopentyloxy-4-methoxy-phenyl)-indole-1-sulfonyl]-3-methyl-quinoline]: the IC50 in assay [1] is less than 10 µM; in assay [2], no more than 10 µM; in assay [3], no more than 10 µM; in assay [4] it was less than 10 µM; in assay [5], less than 10 µM.

On to `COc1ccc(-c2cn(C(=O)c3ccc4c(OC(C)=O)cccc4c3)c3ncccc23)cc1OC` [Compound 62, Acetic acid 6-[3-(3,4-dimethoxy-phenyl)-pyrrolo[2,3-b]pyridine-1-carbonyl]-naphthalen-1-yl ester-amide], for which the IC50 in assay [1] is less than 10 µM; in assay [2], no more than 10 µM; in assay [3] it was no more than 10 µM; in assay [4], less than 10 µM; in assay [5] it was less than 10 µM.

As to `COc1ccc(-c2ccnc3[nH]ccc23)cc1OC` [Compound 50, 4-(3,4-Dimethoxy-phenyl)-1H-pyrrolo[2,3-b]pyridine], the IC50 in assay [1] is less than 10 µM; in assay [2], no more than 10 µM; in assay [3], no more than 10 µM; in assay [4] it was less than 10 µM; in assay [5], less than 10 µM.

With `COc1ccc(-c2c[nH]c3ncccc23)cc1OC` [Compound 1, 3-(3,4-dimethoxy-phenyl)-1H-pyrrolo[2,3-b]pyridine], the IC50 was less than 10 µM in assay [1]; no more than 10 µM in assay [2]; no more than 10 µM in assay [3]; less than 10 µM in assay [4]; less than 10 µM in assay [5].

For the compound `COc1ccc(-c2cn(C(=O)c3cccc4c(OC)cccc34)c3ncccc23)cc1OC` [Compound 65, [3-(3,4-Dimethoxy-phenyl)-pyrrolo[2,3-b]pyridin-1-yl]-(5-methoxynaphthalen-1-yl)-methanone], the IC50 in assay [1] is less than 10 µM; in assay [2], no more than 10 µM; in assay [3], no more than 10 µM; in assay [4], less than 10 µM; in assay [5], less than 10 µM.

For `CCOc1cc(NS(C)(=O)=O)ccc1C(=O)n1cc(-c2ccc(OC)c(OC)c2)c2cccnc21` [Compound 145, N-{4-[3-(3,4-Dimethoxy-phenyl)-pyrrolo[2,3-b]pyridine-1-carbonyl]-3-ethoxy-phenyl}-methanesulfonamide], the IC50 was less than 10 µM in assay [1]; no more than 10 µM in assay [2]; no more than 10 µM in assay [3]; less than 10 µM in assay [4]; less than 10 µM in assay [5].

For the compound `COc1ccc(-c2cn(Cc3cccc([N+](=O)[O-])c3)c3ncccc23)cc1OC` [Compound 53, 3-(3,4-Dimethoxy-phenyl)-1-(3-nitro-benzyl)-1H-pyrrolo[2,3-b]pyridine], the IC50 in assay [1] is less than 10 µM; in assay [2], no more than 10 µM; in assay [3], no more than 10 µM; in assay [4] it was less than 10 µM; in assay [5], less than 10 µM.

Take `COc1ccc(-c2cn(C(=O)c3ccc(F)c4ccccc34)c3ncccc23)cc1OC` [Compound 64, [3-(3,4-Dimethoxy-phenyl)-pyrrolo[2,3-b]pyridin-1-yl]-(4-fluoro-naphthalen-1-yl)-methanone]: the IC50 was less than 10 µM in assay [1]; no more than 10 µM in assay [2]; no more than 10 µM in assay [3]; less than 10 µM in assay [4]; less than 10 µM in assay [5].

For `COc1ccc(-c2cn(S(=O)(=O)c3cc(C)cc4cccnc34)c3ncccc23)cc1OC` [Compound 24], the IC50 in assay [1] was less than 10 µM; in assay [2], no more than 10 µM; in assay [3] it was no more than 10 µM; in assay [4], less than 10 µM; in assay [5], less than 10 µM.

As to `COc1ccc(-c2cn(S(=O)(=O)c3ccccc3)c3ncccc23)cc1OC` [Compound 5, 1-benzenesulfonyl-3-(3,4-dimethoxy-phenyl)-1H-pyrrolo[2,3-b]pyridine], the IC50 in assay [1] was less than 10 µM; in assay [2], no more than 10 µM; in assay [3], no more than 10 µM; in assay [4], less than 10 µM; in assay [5] it was less than 10 µM.

For the compound `COc1ccc(-c2c[nH]c3ncccc23)cc1OC1CCCC1` [Compound 88, 3-(3-Cyclopentyloxy-4-methoxy-phenyl)-1H-pyrrolo[2,3-b]pyridine], the 50% inhibitory concentration (IC50) in assay [1] was less than 10 µM; in assay [2], no more than 10 µM; in assay [3], no more than 10 µM; in assay [4], less than 10 µM; in assay [5], less than 10 µM.
